A value given as a limit tells only on which side of the number the result lay.

In one assay the target is T1, GPX4 (Homo sapiens, UniProt P36969).
T1 sequence (P36969 28-197): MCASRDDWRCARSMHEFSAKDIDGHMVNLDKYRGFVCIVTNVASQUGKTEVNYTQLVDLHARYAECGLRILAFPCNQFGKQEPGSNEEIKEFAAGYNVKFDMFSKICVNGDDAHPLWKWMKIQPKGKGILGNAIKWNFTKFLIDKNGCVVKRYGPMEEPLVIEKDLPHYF
Description: coupled glutathione reductase / NADPH assay, […] nm. Type of assay: biochemical.

In the next assay the target is T2, GPX4 (residues 28-197) (Homo sapiens, UniProt P36969).
T2 sequence (P36969 28-197): T1 sequence (P36969 28-197)
Nature of the assay: SPR. It counts as binding.

`Cc1ccc(C(=O)O)cc1-c1ccc(/C=C2\SC(=O)N(Cc3ccc(F)cc3)C2=O)o1` [DP021] registered an IC50 at GPX4 of 4.17 µM. Also, on GPX4 (residues 28-197), binding was put at a Kd of 1830 nM. As for `COC(=O)c1ccc(C)c(-c2ccc(/C=C3\SC(=O)N(Cc4ccc(F)cc4)C3=O)o2)c1` [DP037], the IC50 on GPX4 is above 100 µM.
